# Measurements published in patent US7288654B2, “Fused-ring pyridine derivative, process for producing the same, and use” (Takeda Pharmaceutical Company Ltd, priority 2003, dated 2007).
# Biological target: T1, human CCR5 (Homo sapiens, UniProt P51681)
# T1 construct: expressed in transfected cells
# Test: [125I]-RANTES binding inhibition in CCR5/CHO cells (CCR5 antagonist activity)
# Settings: test compound 1 μM, 100 pM [125I]-RANTES, room temperature, 40 minutes
# Experimental: (1) Cloning of Human CCR5 Chemokine Receptor
# Cloning of a CCR5 gene was conducted from human spleen cDNA by a PCR method. Using 0.5 ng of spleen cDNA (Toyobo Co., Ltd., QUICK-Clone cDNA) as a template, the PCR reaction was carried out in a DNA Thermal Cycler 480 (Perkin Elmer) using a TaKaRa EX Taq (Takara Shuzo Co., Ltd.) (reaction conditions: 30 cycles of treatments at 95° C. for 1 minute, at 60° C. for 1 minute, and at 75° C. for 5 minutes) by adding 25 pmol of primers, SEQ ID NO. 1 (sequence length: 34; sequence type: nucleic acid; number of chains: a single chain; topology: linear; sequence kind: other nucleic acid, synthetic DNA) described in Experimental Example (1) of WO 99/32100, and SEQ ID NO. 2 (sequence length: 34; sequence type: nucleic acid; number of chains: a single chain; topology: linear; sequence kind: other nucleic acid, synthetic DNA) described in Experimental Example (1) of WO 99/32100, respectively, which were prepared by referring to the base sequence of the CCR5 gene described by Samson et al. (Biochemistry 35 (11), 3362-3367 (1996)). The PCR products were subjected to agarose gel electrophoresis to collect DNA fragments of about 1.0 kb. Then, the CCR5 gene was cloned using an Original TA Cloning Kit (Funakoshi Co., Ltd.).
# (2) Preparation of Plasmid for Expression of Human CCR5
# The plasmids obtained above were digested with restriction enzymes XbaI (Takara Shuzo Co., Ltd.) and BamHI (Takara Shuzo Co., Ltd.), and subjected to agarose gel electrophoresis to collect DNA fragments of about 1.0 kb. The DNA fragments and a plasmid pcDNA3.1 (Funakoshi Co., Ltd.) for expression in animal cells, which was previously digested with XbaI and BamHI, were mixed and ligated by DNA Ligation Kit Ver.2 (Takara Shuzo Co., Ltd.). Transformation of E. coli JM109 competent cells (Takara Shuzo Co., Ltd.) gave plasmid pCKR5.
# (3) Introduction of the Plasmid for Expression of Human CCR5 into CHO—K1 Cells and Expression Thereof
# CHO—K1 cells grown in a 750 ml tissue culture flask (Becton Dickinson) using Ham's F12 medium (Nihon Pharmaceutical Co., Ltd.) containing 10% fetal bovine serum (Lifetech Oriental) were collected from the flask by using 0.5 g/L trypsin-0.2 g/L EDTA (Lifetech Oriental). The cells were then washed with PBS (Lifetech Oriental), centrifuged (1000 rpm, 5 minutes), and suspended in PBS. Next, DNA was introduced into the cells using Gene Pulser (Bio-Rad Laboratories Inc.) under the following conditions. […]
# Subsequently, the Geneticin-resistant strains were cultured in the 96-well plate (Becton Dickinson), and then CCR5-expressing cells were selected from the resistant strains. […] The cells to which the ligand bound specifically, i.e., CCR5/CHO strains, were selected by measurement of radioactivity by γ-counter. […]
# T1 sequence (P51681 whole entry): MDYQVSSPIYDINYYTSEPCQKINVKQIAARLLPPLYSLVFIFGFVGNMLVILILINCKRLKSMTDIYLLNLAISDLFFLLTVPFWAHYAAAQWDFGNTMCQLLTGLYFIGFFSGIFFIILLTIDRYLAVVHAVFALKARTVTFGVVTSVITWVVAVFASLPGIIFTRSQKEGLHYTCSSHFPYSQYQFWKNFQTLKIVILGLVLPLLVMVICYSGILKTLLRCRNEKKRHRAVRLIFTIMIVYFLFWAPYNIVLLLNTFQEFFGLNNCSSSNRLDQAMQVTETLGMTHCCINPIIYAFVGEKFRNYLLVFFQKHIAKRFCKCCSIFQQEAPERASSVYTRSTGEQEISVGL
row,Compound,Binding Inhibitory Ratio (%)
1,"CCCCOCCOc1ccc(-c2cnc3c(c2)C=C(C(=O)Nc2ccc([S@@+]([O-])Cc4cncn4CCC)cc2)CCCN3CC(C)C)cc1 [Compound 1, (S)-3-[4-(2-butoxyethoxy)phenyl]-10-isobutyl-N-[4-[[(1-propyl-1H-imidazol-5-yl)methyl]sulfinyl]phenyl]-7,8,9,10-tetrahydropyrido[2,3-b]azocine-6-carboxamide]",94%
2,"CCCCOCCOc1ccc(-c2cnc3c(c2)C=C(C(=O)Nc2ccc([S@@+]([O-])Cc4cncn4CCC)cc2)CCCN3CCC)cc1 [Compound 2, (S)-3-[4-(2-butoxyethoxy)phenyl]-10-propyl-N-[4-[[(1-propyl-1H-imidazol-5-yl)methyl]sulfinyl]phenyl]-7,8,9,10-tetrahydropyrido[2,3-b]azocine-6-carboxamide]",93%
3,"CCCCOCCOc1ccc(-c2cnc3c(c2)C=C(C(=O)Nc2ccc([S@@+]([O-])Cc4cncn4CCC)cc2)CCN3CC(C)C)cc1 [Compound 3, (S)-3-[4-(2-butoxyethoxy)phenyl]-9-isobutyl-N-[4-[[(1-propyl-1H-imidazol-5-yl)methyl]sulfinyl]aniline]-8,9-dihydro-7H-pyrido[2,3-b]azepine-6-carboxamide]",100%
4,"CCCCOCCOc1ccc(-c2cnc3c(c2)C=C(C(=O)Nc2ccc(CN(C)C4CCOCC4)cc2)CCN3CC(C)C)cc1 [Compound 4, 3-[4-(2-butoxyethoxy)phenyl]-9-isobutyl-N-[4-[[methyl(tetrahydro-2H-pyran-4-yl)amino]methyl]phenyl]-8,9-dihydro-7H-pyrido[2,3-b]azepine-6-carboxamide]",100%
